Drawing on the RepoRT retention time repository (doi:10.1016/j.chroma.2022.462867), this text covers LC retention time for 51 compounds.

Common to all, as to details: stereoisomer not certain
Series [1] in a line: RP, Phenomenex Kinetex PS C18, 150 × 3 mm, 2.6 µm, 40 °C, 0.35 mL/min, estimated dead time 1.9 min; A: water + 5 mM ammonium acetate, pH 5; B: methanol; gradient (min/%B) 0/5 20/100 25/100 30/5.
Series [2] in a line: RP, Phenomenex Kinetex EVO C18, 150 × 3 mm, 2.6 µm, 40 °C, 0.35 mL/min, estimated dead time 1.9 min; A: water + 0.1% formic acid, pH 3; B: methanol; gradient (min/%B) 0/5 20/100 25/100 30/5.
Series [3] in a line: RP, Phenomenex Kinetex EVO C18, 150 × 3 mm, 2.6 µm, 40 °C, 0.35 mL/min, estimated dead time 1.9 min; A: water + 5 mM ammonium formate, pH 5; B: acetonitrile; gradient (min/%B) 0/5 20/100 25/100 30/5.

For `CSC1N=C(NC2CC2)NC(NC(C)(C)C)N1` (configuration not stated) [Irgarol], the LC retention time in series [1] was 16.6 min.

For `CC(C)COP(=O)(OCC(C)C)OCC(C)C` [Tri-isobutyl phosphate], the LC retention time in series [2] was 17.8 min; in series [1], 18 min; in series [3], 14 min.

Take `O=C1Nc2ccc(Cl)cc2C(C#CC2CC2)(C(F)(F)F)O1` (configuration not stated) [Efavirenz]: the LC retention time in series [2] is 16.8 min; in series [1], 16.7 min; in series [3] it was 13.6 min.

As for `CNC(=O)C=C(C)OP(=O)(OC)OC` [Monocrotophos], the LC retention time in series [2] is 6.95 min; in series [1] it was 7.86 min; in series [3] it was 4.17 min.

For the compound `CCC(C)(C)C(=O)OC1CC(C)C=C2C=CC(C)C(CCC3CC(O)CC(=O)O3)C21` (configuration not stated) [Simvastatin], the results for the LC retention time in series [1] and in series [3] were 19.1 min and 14.9 min, respectively.

As to `CCc1cccc(C)c1N(C(=O)CCl)C(C)COC` (configuration not stated) [Metolachlor], the LC retention time in series [2] was 16.3 min; in series [1] it was 16.6 min; in series [3], 12.9 min.

For `Cc1ccc2n[nH]nc2c1` [5-Methyl-1H-benzotriazole], the LC retention time was 9.78 min in series [2], 10.4 min in series [1] and 6.42 min in series [3].

Regarding `c1ccc2n[nH]nc2c1` [1H-Benzotriazole], the LC retention time in series [2] is 7.35 min; in series [1], 8.12 min; in series [3], 5 min.

`Cn1c(=O)c2[nH]cnc2n(C)c1=O` [Theophylline]: the LC retention time in series [2] is 5.29 min; in series [1], 6.79 min; in series [3] it was 3.27 min.

`CCN=C1NC(=NCC)NC(Cl)N1` (configuration not stated) [Simazine]: the LC retention time in series [2] was 11.9 min; in series [1] it was 12.4 min; in series [3], 8.6 min.

For the compound `CN(C)C(=O)Nc1ccc(Cl)c(Cl)c1` [Diuron], the LC retention time was 13.9 min in series [2], 14.1 min in series [1] and 10.6 min in series [3].

With `NC(=O)N1c2ccccc2C=Cc2ccccc21` [Carbamazepine], the LC retention time in series [2] was 12.6 min; in series [1], 13.2 min.

For the compound `CCCc1cc(=O)[nH]c(=S)[nH]1` [Propylthiouracil], the values for the LC retention time in series [2], in series [1] and in series [3] were 6.85 min, 7.7 min and 4.45 min, respectively.

In the case of `CCCN(CCC)c1c([N+](=O)[O-])cc(C(F)(F)F)cc1[N+](=O)[O-]` [Trifluralin], the LC retention time in series [2] was 16.9 min; in series [1], 19 min; in series [3], 16.5 min.

In the case of `NS(=O)(=O)c1cc(C2(O)NC(=O)c3ccccc32)ccc1Cl` (configuration not stated) [Chlorthalidone], the LC retention time in series [2] was 9.19 min; in series [1], 9.81 min; in series [3], 6.87 min.

As to `Nc1ccc(Cl)cc1` [4-Chloroaniline], the figures for the LC retention time in series [2], in series [1] and in series [3] were 5.28 min, 10.3 min and 8.88 min, respectively.

Consider `CC12CCC(=O)C=C1CCC1C2C(O)CC2(C)C(C(=O)CO)CCC12` (configuration not stated) [Corticosterone], for which the values for the LC retention time in series [2], in series [1] and in series [3] were 14 min, 15 min and 9.72 min, respectively.

On to `c1ccc2scnc2c1` [Benzothiazole], for which the LC retention time was 11.2 min in series [2], 11.5 min in series [1] and 7.96 min in series [3].

For `c1ccc2c(c1)[nH]c1ccccc12` [Carbazole], the values for the LC retention time in series [2], in series [1] and in series [3] were 15.5 min, 15.1 min and 12.5 min, respectively.

As to `CCOP(=O)(OCC)OCC` [Triethyl phosphate], the LC retention time in series [2] was 10.5 min; in series [1] it was 11.2 min; in series [3], 6.52 min.

For `CCCCC1=NC2(CCCC2)C(=O)N1Cc1ccc(-c2ccccc2-c2nn[nH]n2)cc1` [Irbesartan], the results for the LC retention time in series [2], in series [1] and in series [3] were 14.5 min, 14.6 min and 9.45 min, respectively.

Turning to `Cn1c(=O)c2c(ncn2C)n(C)c1=O` [Caffeine], the LC retention time in series [2] was 6.69 min; in series [1], 7.93 min; in series [3] it was 3.88 min.

Consider `CN(C)C(=O)Nc1ccc(Cl)cc1` [Monuron], for which the LC retention time was 11.5 min in series [2], 11.9 min in series [1] and 8.56 min in series [3].

In the case of `O=C(O)c1ccc2ccccc2c1` [2-naphthoic acid], the LC retention time in series [2] is 14.1 min; in series [1], 13 min.

As to `Cc1cc(C)nc(NS(=O)(=O)c2ccc(N)cc2)n1` [Sulfamethazine], the LC retention time in series [2] is 6.77 min; in series [1] it was 7.93 min; in series [3], 5.18 min.

In the case of `CCN=C1NC(Cl)NC(NC(C)(C)C#N)N1` (configuration not stated) [Cyanazine], the results for the LC retention time in series [2], in series [1] and in series [3] were 11.4 min, 12 min and 8.86 min, respectively.

Consider `Cc1cc(=O)n(-c2ccccc2)n1C` [Phenazone (Antipyrine)], for which the LC retention time is 7.82 min in series [2] and 9.04 min in series [1].

Regarding `NC(=O)c1cccnc1` [Nicotinamide], the LC retention time in series [1] was 3.85 min.

As for `Oc1ccc2ccccc2c1N=Nc1ccccc1` [Sudan I], the values for the LC retention time in series [2], in series [1] and in series [3] were 19.4 min, 19.2 min and 15.2 min, respectively.

Consider `NS(=O)(=O)c1cc2c(cc1Cl)NCNS2(=O)=O` [Hydrochlorothiazide], for which the LC retention time in series [2] was 4.62 min; in series [1] it was 13.8 min; in series [3] it was 9.77 min.

In the case of `CC(O)(CS(=O)(=O)c1ccc(F)cc1)C(=O)Nc1ccc(C#N)c(C(F)(F)F)c1` (configuration not stated) [Bicalutamide], the figures for the LC retention time in series [2], in series [1] and in series [3] were 14.4 min, 14.6 min and 12.2 min, respectively.

In the case of `CC(C)C1=CC2=CCC3C(C)(C(=O)O)CCCC3(C)C2CC1` (configuration not stated) [Abietic acid], the LC retention time in series [1] was 20.3 min; in series [3], 16.9 min.

Regarding `CC12CCC3c4ccc(O)cc4CCC3C1CCC2O` (stereo not drawn) [17beta estradiol], the figures for the LC retention time in series [2], in series [1] and in series [3] were 15.2 min, 15.8 min and 11.2 min, respectively.

Consider `CCOP(=S)(OCC)Oc1ccc([N+](=O)[O-])cc1` [Parathion], for which the LC retention time is 16.8 min in series [2], 16.7 min in series [1] and 14.2 min in series [3].

For `COc1ccc(Cl)cc1C(=O)NCCc1ccc(S(=O)(=O)NC(=O)NC2CCCCC2)cc1` [Glibenclamide], the LC retention time was 16.2 min in series [2], 16 min in series [1] and 12.5 min in series [3].

Regarding `Nc1ccc(S(=O)(=O)Nc2ccccn2)cc1` [Sulfapyridine], the LC retention time in series [2] is 5.39 min; in series [1] it was 6.53 min; in series [3], 4.4 min.

For `CSC1N=C(NC(C)C)NC(NC(C)C)=N1` [Prometryn], the LC retention time in series [1] was 16.2 min; in series [3] it was 12.5 min.

Turning to `COC(=O)C1CCCCC1S(=O)(=O)NC(=O)NC1=NC(OC)NC(C)N1` (configuration not stated) [Metsulfuron-methyl], the LC retention time in series [2] was 12.2 min; in series [1] it was 9.47 min; in series [3] it was 5.28 min.

Turning to `CCCCC(=O)N(Cc1ccc(-c2ccccc2-c2nn[nH]n2)cc1)C(C(=O)O)C(C)C` (configuration not stated) [Valsartan], the LC retention time is 13.5 min in series [1] and 8.73 min in series [3].

For `CCC1=C(C)CN(C(=O)NCCc2ccc(S(=O)(=O)NC(=O)NC3CCC(C)CC3)cc2)C1=O` (configuration not stated) [Glimepiride], the values for the LC retention time in series [1] and in series [3] were 16.5 min and 12.8 min, respectively.

On to `CCc1cccc(CC)c1N(COC)C(=O)CCl` [Alachlor], for which the LC retention time in series [2] was 16.2 min; in series [1], 16.4 min; in series [3], 13 min.

On to `c1ccc2nccnc2c1` [Quinoxaline], for which the results for the LC retention time in series [2], in series [1] and in series [3] were 8.84 min, 9.84 min and 5.73 min, respectively.

Consider `C1=Cc2ccccc2Nc2ccccc21` [Iminostilbene], for which the LC retention time in series [2] was 15.7 min; in series [1] it was 15.5 min; in series [3], 13 min.

As to `O=P(Oc1ccccc1)(Oc1ccccc1)Oc1ccccc1` [Triphenylphosphate], the results for the LC retention time in series [2], in series [1] and in series [3] were 17.2 min, 17.3 min and 13.8 min, respectively.

Consider `N#Cc1nn(-c2c(Cl)cc(C(F)(F)F)cc2Cl)c(N)c1S(=O)C(F)(F)F` (configuration not stated) [Fipronil], for which the LC retention time in series [2] is 16.7 min; in series [1], 16.6 min.

Consider `Nc1nc(N)nc(N)n1` [Melamine], for which the LC retention time in series [1] was 2.33 min.

Regarding `O=[N+]([O-])c1ccc2ccc3cccc4ccc1c2c34` [1-Nitropyrene], the LC retention time is 18.4 min in series [1] and 14.8 min in series [3].

With `CCCSP(=O)(OCC)SCCC` [Ethoprop], the LC retention time in series [1] was 16.5 min.

`Oc1ccc2ccc3cccc4ccc1c2c34` [1-hydroxypyrene]: the values for the LC retention time in series [1] and in series [3] were 16.7 min and 13.1 min, respectively.

Take `CCN=C1NC(NC(C)C)=NC(Cl)N1` (configuration not stated) [Atrazine]: the values for the LC retention time in series [2] and in series [1] were 13.6 min and 13.9 min, respectively.

Regarding `CCOP(=S)(OCC)Oc1nc(Cl)c(Cl)cc1Cl` [Chlorpyrifos], the LC retention time in series [1] was 18.8 min; in series [3], 15.9 min.
